SMILES | melting point [°C]
Cc1cn(-c2ccc(S(N)(=O)=O)c(F)c2)c(-c2ccc(-c3cscn3)cc2)n1 | 145 to 147
CCOC(=O)CCSc1nnsc1-c1ccc(C)cc1 | 68.5 to 69.5
CCOC(=O)c1ccc(Cl)nc1OCC | 33 to 35
Cc1ccc2[nH]c(C)c(-c3ccc(F)cc3)c2c1 | 124 to 128
COc1cc(C(C)C)c(Oc2cnc(N)nc2N)cc1C#CC1CC1 | 226 to 227
COC(=O)c1nc(N(C)Cc2ccccc2)ccc1Oc1nc(OC)cc(OC)n1 | 73 to 75
CSc1ncc2c(n1)N(c1ccccc1)C(=O)N(c1ccccc1Cl)C2 | 79.5 to 82.4
O=CNNc1cccc(NC(=S)Nc2ccccc2)c1 | 143 to 145
O=C1OCc2cc([N+](=O)[O-])c(Oc3ccc(F)cc3F)cc21 | 164 to 166
C=CCc1c(O)c(=O)[nH]c2ccccc2c1=O | 174 to 175
COc1ccc(CSc2nnc(-c3ccc4ncsc4c3)o2)cc1 | 134 to 135
COc1ccc(C(=O)C2=C(c3ccccc3)c3ccc(OC)cc3C2)cc1 | 113 to 114
O=C1CC(=O)C(C2CCCSC2)CO1 (stereo unspecified) | 91 to 93
COC(=O)NC(CC(=O)c1ccccc1)C(=O)O (stereo unspecified) | 132 to 135
COc1ccnc(CCc2nc3c(C)ccnc3[nH]2)c1 | 143 to 144
Cn1cc(S(=O)(=O)Cl)c(=O)c2ccccc21 | 313 to 315
Nc1nc2ccc(CCN3CCC(C(=O)c4ccccc4)CC3)cc2s1 | 186 to 188
Clc1ccc(CCC(Cn2ccnc2)Sc2cccc(Cl)c2Cl)cc1 (stereo unspecified) | 134 to 136
Cn1nc(N)c2sc3cc(O)c(O)cc3c21 | 305 to 307
COC(=NO)c1cccc2[nH]cc(C=O)c12 | 178 to 179
CCOC(=O)CCc1ccc(C(=O)Cc2ccccc2)cc1 | 50.5 to 52.5
COCCOc1cc(N(C)S(=O)(=O)c2cccs2)c2[nH]c(C(=O)O)cc2c1 | 198 to 199
COC(=O)C1=C(C)NC(C)=C(C(=O)OC)C1c1ccc(F)c(Nc2c(NCCCN3CCC(c4cccc(OC)c4)CC3)c(=O)c2=O)c1 | 205 to 207
CNC(=O)N(O)C(C)c1ccc(F)c(Br)c1 (stereo unspecified) | 137 to 138
CCCc1c(O)c(Br)cc(C(C)=O)c1O | 67
COc1ccc([N+](=O)[O-])c(CC#N)n1 | 116 to 117

SMILES | melting point [°C]
COC1=C(OC)C(=O)NC1=O | 126 to 127
CCOc1cc(N)c(Cl)cc1C(=O)NCCC1CN(Cc2ccccc2)CCO1 (stereo unspecified) | 149 to 151
CCOC(=O)c1sc(SC(C)C)c2c1CCC(N=[N+]=[N-])C2=O (stereo unspecified) | 118 to 119
CCCCCCC(C)(O)CCc1ccc(O)c(O)c1 (stereo unspecified) | 81 to 83
CN(N)C(=O)Nc1ccccc1Oc1ccccc1 | 117 to 119
C=C(Nc1nc(-c2ccccc2)c(-c2nc3ccccc3c(=O)n2-c2ccc(C)cc2)s1)c1ccco1 | 231 to 232
CC1=Nc2ccc(CO)cc2C(=O)C1 | 249 to 252
O=C(CCC(=O)N1CCC[C@H]1C(=O)O)[C@H](Cc1ccccc1)OCc1ccccc1 | 114 to 115
Cc1nnc(CN2CCCC2)n1-c1ccc(Cl)cc1C(=O)c1ccccc1 | 174 to 176
CCOC(=O)c1c(N)sc2c1CCN(CCCc1ccccc1)C2 | 108 to 110
O=C1NC(=O)C(=Cc2ccc(OCCN3C(=O)SC(c4ccccc4)C3=O)cc2)S1 (stereo unspecified) | 120
O=C1Nc2ccccc2C12COc1c2ccc2c1OCCO2 (stereo unspecified) | > 250
O=[N+]([O-])c1cccc2cc(-c3ncns3)[nH]c12 | 186 to 187
CC(=O)OC1(C(=O)CO)CCC2C3CCC4=CC(=O)C=CC4(C)C3C(O)CC21C (stereo unspecified) | 223 to 224
O=c1[nH]c2cnc(-c3ccccc3)nc2n1Cc1ccccc1 | 286 to 287
COC(=O)c1c(OC)ccc(N)c1OC | 78 to 80
CC1(C)Oc2ccc(C#N)cc2[C@@H](NC2=C(CO)C(=O)CC2)[C@@H]1O (relative stereo) | 218 to 220
CCN(CC)C(=O)n1cnc(S(=O)(=O)CC2CCCC2)n1 | 77 to 79
COc1ccc(OCC(=O)O)c2c(=O)c3ccccc3sc12 | 223 to 225
COC(=O)[C@H](Cc1cccc(Br)c1)NC(=O)OC(C)(C)C | 60 to 61
COC1CCC(OC)C2=C1C=CC(=O)C2 (stereo unspecified) | 99 to 100
CC(C)(C)c1nc(C(=O)O)c(Cl)c(N)c1F | 149 to 151
COC(=O)c1ccc(Cn2c(=O)c(C)c3sc(C(=O)NCc4ccc(F)cc4)cn3c2=O)cc1Cl | 176 to 178
CCc1nc(-c2ccc(OCCCN3CCN(C)CC3)cc2)no1 | 55 to 56
CC(C)N(CCN1C(=O)/C(=N/NC(N)=O)c2ccc(Cl)cc21)C(C)C | 205 to 208
Cc1ccccc1C(=O)COc1c(C(=O)c2ccc(Cl)c(C)c2Cl)c(C)nn1C | 154

SMILES | melting point [°C]
CC1Cc2cc3c(cc2C(c2ccc([N+](=O)[O-])cc2)=NN1c1nc(=O)n(C2CC2)s1)OCO3 (stereo unspecified) | 246 to 247
O=C(Nc1ccc(CCN2C(=O)C3CCCC3=Nc3ccccc32)cc1)OCc1ccccc1 (stereo unspecified) | 103 to 105
Brc1ccc(CSc2nc(-c3ccncc3)ns2)cc1 | 132
CC(=O)N1CCN(c2nc(N)ncc2Oc2ccc(Cl)cc2)CC1 | 153 to 157
O=C1NC(=O)C(=Cc2ccc([N+](=O)[O-])cc2)S1 | 272 to 273
CC(C)OC(=O)C(O)C(CC1CCCCC1)NC(=O)C(Cc1c[nH]cn1)NC(=O)C(CC(=O)N1CCOCC1)Cc1cccc2ccccc12 (mixture of isomers) | 103 to 106
CCCc1c2c(cc3c(=O)cc(C(=O)O)oc13)CCCC2 | 235
Cc1c(NC(=O)CC(C)(C)C)c(C)c2c(c1-c1cccc([N+](=O)[O-])c1)OCC2c1ccc(C(C)C)cc1 (stereo unspecified) | 209 to 210
Cc1c(NC(=O)c2ccc(C#CC3(O)CCC3)cc2)ccc2cc(CNCC3CCOCC3)n(C)c12 | 202 to 204
Oc1cccc(O)c1Cl | 97
COCc1ccc(C(=O)NCC#N)cc1 | 107 to 108
CC(=O)NCCOc1ccc([N+](=O)[O-])cc1O | 165
COc1cc(OC)c2c(=O)c3oc4ccccc4c3oc2c1 | 261 to 263
CS(=O)(=O)c1cccc(-c2ccc(C3C(CCC(O)c4ccc(F)cc4)C(=O)N3c3ccc(F)cc3)cc2)c1 (stereo unspecified) | 104
O=C(Nc1ccc(-n2nc(C(F)(F)F)cc2C(F)(F)F)cc1)c1cccc(F)c1F | 147 to 149
Cc1cccc(COc2cccc(OCc3nc(-c4ccccc4)oc3C)c2)c1C(=O)O | 144 to 145
COC(=O)[C@@H]1COC(=S)N1Cc1ccccc1 | 101 to 102
CNC(=O)c1ccc(C(F)(F)F)c(N)c1 | 114 to 115
CON=C(c1noc(C)n1)c1cc(Cl)ccc1OCc1ccc(Cl)cc1 | 127 to 128
C=C(C(=O)c1ccc(-n2ccnc2)nc1)c1ccc(F)cc1F | 115 to 116
N#Cc1ccc(N(Cc2ccc(O)c(Br)c2)n2cnnc2)cc1-c1cc2ccccc2o1 | 147 to 148
Nc1ccccc1-c1ncco1 | 31 to 32
COC(=O)Nc1nc2ccccc2n1-c1nc(N2CCOCC2)nc(N2CCOCC2)n1 | 206 to 209
COc1ccc(N(C(=O)CN2C(=O)C(Cc3nn(Cc4ccccc4)c4ccccc34)(OC)C(=O)Nc3ccccc32)C(C)C)cc1 (stereo unspecified) | 202 to 204
Cn1cc(C(=O)c2ccnc(Cl)c2)cc1C(=O)c1ccc(Cl)cc1 | 182 to 184
COC(=O)C(O)=CC(=O)c1cn(Cc2ccccc2F)c(=O)n(Cc2ccccc2F)c1=O | 158 to 160

SMILES | melting point [°C]
Clc1ccc(CN2C(=NCCCn3ccnc3)c3cccc4cccc2c34)cc1 | 90 to 91
CC(C)N1CCN=C1c1ccccc1C(=O)c1ccc(Cl)cc1 | 114 to 117
COc1cccc(N2CCN(C(=O)NCCN(C)C)CC2)c1 | 70 to 72
O=C(O)Cc1c(C(=O)c2ncc[nH]2)[nH]c2cc(Cl)ccc12 | 252 to 253
Cc1cc(-c2ccc(-c3c(Cc4ccccc4)oc4ccccc34)cc2)cc(C)c1OS(=O)(=O)c1ccc(C(=O)O)c(O)c1 | 165 to 167
COc1cc([N+](=O)[O-])ccc1-c1cncs1 | 125 to 128
CC(C)(C)C12COC(CCCCBr)(OC1)OC2 | 111 to 115
CCOC(=O)/C(C)=C/c1ccc(OC(C)C)cc1Oc1ncc(C(F)(F)F)cc1Cl | 61 to 62
COc1ccc(C2Sc3c(ccc4ccccc34)N(CCCN(C)C)C(=O)C2OC(C)=O)cc1 (stereo unspecified) | 98 to 99
O=C(O)CN1CC(=O)NC1=NN=Cc1ccccc1 | 218 to 222
COc1ccc(CNc2nc(CCC(=O)O)nc3sc(Cl)cc23)cc1Cl | 126
Cc1c(CCC(=O)c2c[nH]c3ccccc23)ncn1C(c1ccccc1)(c1ccccc1)c1ccccc1 | 225 to 227
COC(=O)c1cnnc2ccccc12 | 57 to 58
COc1ccc(CNc2cc(F)cc(CO)c2)cc1 | 93
CC(=O)SCC(C)C1CCC2C3CCC4=C(N)C(=O)CCC4(C)C3CCC12C (stereo unspecified) | 173 to 176
O=C(Cn1c(-c2cccc(Br)c2)nc2cccnc21)N1CCCCC1 | 157 to 158
Cc1c(Cl)c2c(c3oc4ccccc4c(=O)c13)CC(C(=O)O)O2 (stereo unspecified) | 284 to 287
CCN(CC)c1cc(F)cc2nc3n(c12)CCCN3c1ccc(Cl)cc1Cl | 142 to 145
COC(=O)[C@@H]1C[C@H](OS(C)(=O)=O)C(=O)[C@H]2[C@@]1(C)CC[C@H]1C(=O)O[C@H](c3ccoc3)C[C@]21C | 147 to 150
Nc1cccc(-c2ccc(CCN3CCN(C(=O)Nc4ccccc4)CC3)cc2)n1 | 60
NS(=O)(=O)c1ccc(-c2noc(-c3cnn4c(C(F)(F)F)cc(-c5ccc(Cl)cc5)nc34)n2)s1 | 294
CC(=O)Nc1ccc(-c2coc3cc(OC(C)=O)c(O)cc3c2=O)cc1 | 265 to 266
Cc1ccc(C2=NC(C)(C)[C@@H](c3ccncc3)C2)c(C)c1 | 50 to 51
